In brackets after ≈: the same amount, converted by molar mass. Read-outs that look alike come from different tables or passages of the source. Where a SMILES comes first, the peptide text is derived from it.
Experiments:
[1] = system: Salmonella enterica serovar Enteritidis (human clinical isolate); assay type: cell-based
Method in brief: (§1)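 CLSI broth microdilution adapted for cationic peptides, in Mueller-Hinton broth, inoculum 2-8×10^5 cfu/mL. Peptides serially diluted from 128 to 0.5 μg/mL in polypropylene plates, incubated 20-24 h at 37° C. MIC = lowest concentration without visible growth.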

S. aureus ATCC 29213 = assay type: cell-based, Staphylococcus aureus
Method in brief: as §1

E. coli ATCC 25922 = assay type: cell-based, Escherichia coli
Method in brief: as §1

[2] = system: E. coli ATCC 25922, Salmonella Enteritidis, S. aureus ATCC 29213; test: Broth microdilution, panel result (at least one / all strains), Example 2; assay type: cell-based; design: key to inhibitory activity (asterisk): *Indicates inhibitory activity; settings: Table 14; against at least one of E. coli ATCC 25922, Salmonella Enteritidis, S. aureus ATCC 29213
Method: The antimicrobial activity of the putative AMPs was determined by a broth microdilution assay as described by the Clinical and Laboratory Standards Institute, with the published adaptations for testing of cationic peptides. Escherichia coli 25922 and Staphylococcus aureus 29213 isolates were purchased from the American Type Culture Collection (ATCC; Manassas, VA, USA). A human clinical isolate of Salmonella enterica serovar Enteritidis was provided by the BC Centre for Disease Control. Bacteria from stocks stored at −80° C. were streaked onto nonselective Columbia blood agar with 5% sheep blood (Oxoid) and incubated overnight at 37° C. Next, 2-4 colonies were streaked onto a new agar plate to ensure uniform health of colonies used in the broth microdilution assay. Isolated colonies were suspended in MHB and the optical density was measured with a spectrophotometer to create an initial inoculum concentration of approximately 1×10^8 cfu/mL. The inoculum was diluted 1:250 to a final concentration of 2-8×10^5 cfu/mL, which was confirmed by performing a Total Viability Count (TVC). The TVC consisted of plating a 1:1000 dilution of the final inoculum on nonselective media and was also used to confirm the health and purity of the inoculum in each trial.
Lyophilized 80 μg peptide aliquots synthesized by GenScript (Piscataway, NJ, USA) were resuspended to 1.28 mg/mL with UltraPure water (Thermo Fisher Scientific, Waltham, MA, USA) and serially diluted in polypropylene 96-well microtiter plates (Greiner Bio-One #650261, Kremsmunster, Austria) from 128 down to 0.5 μg/mL. Two columns per plate were reserved for growth and sterility controls. Inoculum was added to the wells containing the peptide and the growth control. Plates were incubated for 20-24 h at 37° C. The minimum inhibitory concentration (MIC) was determined as the lowest peptide concentration where there was no visible bacterial growth.

[3] = serovar Enteritidis (human clinical isolate)

Row | Structure (SMILES) | MIC (ug/mL) S. Enteritidis [1, 3] | MIC (ug/mL) S. aureus (S. aureus ATCC 29213; ATCC 29213) | MIC (ug/mL) E. coli (E. coli ATCC 25922; ATCC 25922) | inhibitory activity (asterisk) [2] | MIC (ug/mL) S. Enteritidis ([1]; Table 14, second value of the cell, three independent experiments, highest concentration tested 128) | MIC (ug/mL) S. aureus (S. aureus ATCC 29213; Table 14, third value of the cell, three independent experiments, highest concentration tested 128) | MIC (ug/mL) E. coli (E. coli ATCC 25922; Table 14, first value of the cell, three independent experiments, highest concentration tested 128)
1 | CC(C)C[C@H](NC(=O)CN)C(=O)N[C@@H](CC(C)C)C(=O)NCC(=O)N[C@@H](CCCCN)C(=O)N[C@H](C(=O)N[C@@H](CC(C)C)C(=O)NCC(=O)N[C@H](C(=O)NCC(=O)N[C@@H](CCCCN)C(=O)N[C@@H](CCCCN)C(=O)N[C@H](C(=O)N[C@@H](CC(C)C)C(=O)N[C@@H](CS)C(=O)NCC(=O)N[C@H](C(=O)N[C@@H](CO)C(=O)NCC(=O)N[C@@H](CCCNC(=N)N)C(=O)N[C@@H](CS)C(=O)O)C(C)C)C(C)C)C(C)C)C(C)C [RaOm4] (H-GLLGKVLGVGKKVLCGVSGRC-OH; N-terminus and C-terminus assumed) | 32 µg/mL (≈ 15.7 µM) | 64 to 128 µg/mL | 4 to 8 µg/mL | 628.* GLLGKVLGVGKKVLCGVSGRC | – | – | –
2 | CC(C)C[C@H](NC(=O)[C@H](CCCCN)NC(=O)[C@H](Cc1c[nH]c2ccccc12)NC(=O)[C@H](CC(C)C)NC(=O)[C@@H](NC(=O)[C@H](CC(C)C)NC(=O)[C@H](Cc1ccccc1)NC(=O)[C@H](CC(C)C)NC(=O)[C@@H](N)CCCCN)[C@@H](C)O)C(=O)N[C@@H](CCCCN)C(=O)N[C@@H](CCCNC(=N)N)C(=O)O [NaVi3, KLFLTLWKLKR] (H-KLFLTLWKLKR-OH; N-terminus and C-terminus assumed) | 64 µg/mL (≈ 44.3 µM) | 128 µg/mL (≈ 88.5 µM) | 8 to 16 µg/mL | 895.* KLFLTLWKLKR | – | – | –
3 | CC[C@H](C)[C@H](NC(=O)CNC(=O)[C@H](CO)NC(=O)[C@@H](NC(=O)[C@H](CC(C)C)NC(=O)CN)[C@@H](C)CC)C(=O)N[C@@H](CC(C)C)C(=O)NCC(=O)N[C@@H](C)C(=O)NCC(=O)N[C@@H](CCCCN)C(=O)N[C@@H](CCCCN)C(=O)N[C@H](C(=O)N[C@@H](CC(C)C)C(=O)N[C@@H](CS)C(=O)O)C(C)C [OdMa9, GLISGILGAGKKVLC] (H-GLISGILGAGKKVLC-OH; N-terminus and C-terminus assumed) | 128 µg/mL (≈ 89.6 µM) | > 128 µg/mL | 64 to 128 µg/mL | 68.* GLISGILGAGKKVLC | – | – | –
4 | CC[C@H](C)[C@H](NC(=O)CN)C(=O)N[C@@H](CC(C)C)C(=O)N[C@@H](CO)C(=O)NCC(=O)N[C@@H](CC(C)C)C(=O)N[C@@H](CC(C)C)C(=O)NCC(=O)N[C@@H](C)C(=O)NCC(=O)N[C@@H](CCCCN)C(=O)N[C@@H](CCCCN)C(=O)N[C@@H](CC(C)C)C(=O)N[C@@H](C)C(=O)N[C@@H](CS)C(=O)NCC(=O)N[C@@H](CC(C)C)C(=O)N[C@H](C(=O)NCC(=O)N[C@@H](CC(C)C)C(=O)N[C@@H](CS)C(=O)O)[C@@H](C)CC [OdTo1] (H-GILSGLLGAGKKLACGLIGLC-OH; N-terminus and C-terminus assumed) | 32 to 64 µg/mL | 8 to 16 µg/mL | 8 µg/mL (≈ 4.09 µM) | 153.* GILSGLLGAGKKLACGLIGLC | – | – | –
5 | CC(C)C[C@H](NC(=O)CN)C(=O)N[C@@H](CC(C)C)C(=O)NCC(=O)N[C@@H](CCCCN)C(=O)N[C@H](C(=O)N[C@@H](CC(C)C)C(=O)NCC(=O)N[C@H](C(=O)NCC(=O)N[C@@H](CCCCN)C(=O)N[C@@H](CCCCN)C(=O)N[C@H](C(=O)N[C@@H](CC(C)C)C(=O)N[C@@H](CS)C(=O)O)C(C)C)C(C)C)C(C)C [PeNi4, GLLGKVLGVGKKVLC] (H-GLLGKVLGVGKKVLC-OH; N-terminus and C-terminus assumed) | 4 to 8 µg/mL | 4 to 8 µg/mL | 8 to 16 µg/mL | 424.* GLLGKVLGVGKKVLC | – | – | –
6 | CC[C@H](C)[C@H](NC(=O)[C@H](CO)NC(=O)[C@H](CC(C)C)NC(=O)[C@H](CO)NC(=O)[C@H](CCCCN)NC(=O)[C@H](CC(C)C)NC(=O)[C@H](C)NC(=O)[C@@H](N)[C@@H](C)O)C(=O)N[C@@H](CC(C)C)C(=O)N[C@@H](CCCCN)C(=O)N[C@@H](CCCCN)C(=O)N[C@@H](CC(C)C)C(=O)N[C@@H](C)C(=O)N[C@@H](CCCCN)C(=O)N[C@@H](CC(C)C)C(=O)N[C@@H](CC(N)=O)C(=O)N[C@@H](CCSC)C(=O)O [PoSn2, TALKSLSILKKLAKLNM] (H-TALKSLSILKKLAKLNM-OH; N-terminus and C-terminus assumed) | – | – | – | 942.* TALKSLSILKKLAKLNM | > 128 µg/mL | > 128 µg/mL | 64 to 128 µg/mL

More lines, main results first:

Row | MIC (ug/mL) S. Enteritidis [1, 3] | MIC (ug/mL) S. aureus (S. aureus ATCC 29213; ATCC 29213) | MIC (ug/mL) E. coli (E. coli ATCC 25922; ATCC 25922) | Structure (SMILES) | inhibitory activity (asterisk) [2] | MIC (ug/mL) S. Enteritidis ([1]; Table 14, second value of the cell, three independent experiments, highest concentration tested 128) | MIC (ug/mL) S. aureus (S. aureus ATCC 29213; Table 14, third value of the cell, three independent experiments, highest concentration tested 128) | MIC (ug/mL) E. coli (E. coli ATCC 25922; Table 14, first value of the cell, three independent experiments, highest concentration tested 128)
7 | > 128 µg/mL | > 128 µg/mL | 64 to 128 µg/mL | CC[C@H](C)[C@H](NC(=O)CN)C(=O)N[C@@H](CC(C)C)C(=O)N[C@@H](CO)C(=O)NCC(=O)N[C@@H](CC(C)C)C(=O)N[C@@H](CC(C)C)C(=O)NCC(=O)N[C@@H](C)C(=O)NCC(=O)N[C@@H](CCCCN)C(=O)N[C@@H](CCCCN)C(=O)N[C@H](C(=O)N[C@H](C(=O)N[C@@H](CS)C(=O)NCC(=O)N[C@@H](CC(C)C)C(=O)N[C@@H](CO)C(=O)NCC(=O)N[C@@H](CCSC)C(=O)N[C@@H](CS)C(=O)O)C(C)C)[C@@H](C)CC [RaOm2] (H-GILSGLLGAGKKIVCGLSGMC-OH; N-terminus and C-terminus assumed) | 629.* GILSGLLGAGKKIVCGLSGMC | – | – | –
8 | 16 to 32 µg/mL | 4 µg/mL (≈ 1.96 µM) | 4 µg/mL (≈ 1.96 µM) | CC(C)C[C@H](NC(=O)CNC(=O)[C@H](CO)NC(=O)[C@@H](NC(=O)[C@@H](NC(=O)[C@H](CS)NC(=O)[C@H](CC(C)C)NC(=O)[C@@H](NC(=O)[C@H](CCCCN)NC(=O)[C@H](CCCCN)NC(=O)CNC(=O)[C@@H](NC(=O)CNC(=O)[C@H](CC(C)C)NC(=O)[C@@H](NC(=O)[C@H](CCCCN)NC(=O)CNC(=O)[C@H](CC(C)C)NC(=O)[C@H](CC(C)C)NC(=O)CN)C(C)C)C(C)C)C(C)C)C(C)C)C(C)C)C(=O)N[C@@H](CS)C(=O)O [PeNi2] (H-GLLGKVLGVGKKVLCVVSGLC-OH; N-terminus and C-terminus assumed) | 395.* GLLGKVLGVGKKVLCVVSGLC | – | – | –
9 | 128/>128/>128 ug/mL | 128/>128/>128 ug/mL | 128/>128/>128 ug/mL | CC[C@H](C)[C@H](NC(=O)[C@@H]1CCCN1C(=O)[C@H](CS)NC(=O)[C@H](C)NC(=O)[C@@H](N)Cc1ccccc1)C(=O)NCC(=O)N[C@@H](Cc1ccccc1)C(=O)N[C@@H](Cc1ccccc1)C(=O)N[C@@H](CCCNC(=N)N)C(=O)N[C@@H](CC(C)C)C(=O)N[C@@H](CCCCN)C(=O)N[C@@H](CCCNC(=N)N)C(=O)O [CaCa1, FACPIGFFRLKR] (H-FACPIGFFRLKR-OH; N-terminus and C-terminus assumed) | 826.* FACPIGFFRLKR | – | – | –
10 | 128 µg/mL (≈ 64.9 µM) | 16 to 32 µg/mL | 8 to 16 µg/mL | CC(C)C[C@H](NC(=O)CNC(=O)[C@H](CO)NC(=O)[C@H](CC(C)C)NC(=O)CNC(=O)[C@H](CS)NC(=O)[C@H](CC(C)C)NC(=O)[C@@H](NC(=O)[C@H](CCCCN)NC(=O)[C@H](CCCCN)NC(=O)CNC(=O)[C@@H](NC(=O)CNC(=O)[C@H](CC(C)C)NC(=O)[C@@H](NC(=O)CNC(=O)[C@H](CO)NC(=O)[C@H](CC(C)C)NC(=O)[C@H](CC(C)C)NC(=O)CN)C(C)C)C(C)C)C(C)C)C(=O)N[C@@H](CS)C(=O)O [OdMa7] (H-GLLSGVLGVGKKVLCGLSGLC-OH; N-terminus and C-terminus assumed) | 1093.* GLLSGVLGVGKKVLCGLSGLC | – | – | –
11 | 128 µg/mL (≈ 64.2 µM) | 64 µg/mL (≈ 32.1 µM) | 8 to 16 µg/mL | CC[C@H](C)[C@H](NC(=O)CNC(=O)[C@H](CO)NC(=O)[C@H](CC(C)C)NC(=O)[C@H](CC(C)C)NC(=O)CN)C(=O)N[C@@H](CC(C)C)C(=O)NCC(=O)N[C@@H](C)C(=O)NCC(=O)N[C@@H](CCCCN)C(=O)N[C@@H](CCCCN)C(=O)N[C@H](C(=O)N[C@H](C(=O)N[C@@H](CS)C(=O)NCC(=O)N[C@@H](Cc1ccccc1)C(=O)N[C@@H](CO)C(=O)NCC(=O)N[C@@H](CC(C)C)C(=O)N[C@@H](CS)C(=O)O)C(C)C)[C@@H](C)CC [OdMa1] (H-GLLSGILGAGKKIVCGFSGLC-OH; N-terminus and C-terminus assumed) | 71.* GLLSGILGAGKKIVCGFSGLC | – | – | –
